Data published in PMC2680961, “Homologous desensitization of signalling by the alpha (α) isoform of the human thromboxane A2 receptor: A specific role for nitric oxide signalling” (Biochimica et Biophysica Acta, 2007).

How the values were obtained:
[1] = biological target: T1, TPα^Δ336 (Homo sapiens, UniProt P21731); assay: [3H]SQ29,548 radioligand binding, Scatchard analysis, HEK.TPα^Δ336
T1 construct: expressed in transfected cells
T1 sequence (P21731 1-335): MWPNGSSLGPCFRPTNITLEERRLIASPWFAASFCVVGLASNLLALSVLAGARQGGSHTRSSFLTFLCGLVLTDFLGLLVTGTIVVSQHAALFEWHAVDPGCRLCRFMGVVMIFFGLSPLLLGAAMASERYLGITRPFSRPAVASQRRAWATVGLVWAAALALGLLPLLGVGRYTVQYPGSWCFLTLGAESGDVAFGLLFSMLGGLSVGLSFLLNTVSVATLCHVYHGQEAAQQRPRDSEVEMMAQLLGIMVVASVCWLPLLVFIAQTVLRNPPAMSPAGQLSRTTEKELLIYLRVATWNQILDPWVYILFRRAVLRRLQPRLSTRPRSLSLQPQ
Method: (§1) Cells were harvested by centrifugation at 500×g at 4 °C for 5 min and washed three times with ice-cold Ca^2+/Mg^2+-free phosphate-buffered saline (PBS). TP radioligand binding assays were carried out at 30 °C for 30 min in 100 μl reactions in the presence of 0–40 nM [^3H] […] Protein determinations were carried out using the Bradford assay.
(§2) Radioligand binding and Scatchard analysis data were analysed using GraphPad Prisim V4.0 programme (GraphPad Software Inc., San Diego CA, USA). Statistical analyses were carried out using the unpaired Student's t test using the Statworks Analysis Package. p-values ≤ 0.01 indicated statistically significant differences.

[2] = biological target: T2, TPα^S331,T337A (Homo sapiens, UniProt P21731, S331A/T337A); assay: [3H]SQ29,548 radioligand binding, Scatchard analysis, HEK.TPα^S331,T337A
T2 construct: expressed in transfected cells
T2 sequence (P21731 1-343 S331A/T337A): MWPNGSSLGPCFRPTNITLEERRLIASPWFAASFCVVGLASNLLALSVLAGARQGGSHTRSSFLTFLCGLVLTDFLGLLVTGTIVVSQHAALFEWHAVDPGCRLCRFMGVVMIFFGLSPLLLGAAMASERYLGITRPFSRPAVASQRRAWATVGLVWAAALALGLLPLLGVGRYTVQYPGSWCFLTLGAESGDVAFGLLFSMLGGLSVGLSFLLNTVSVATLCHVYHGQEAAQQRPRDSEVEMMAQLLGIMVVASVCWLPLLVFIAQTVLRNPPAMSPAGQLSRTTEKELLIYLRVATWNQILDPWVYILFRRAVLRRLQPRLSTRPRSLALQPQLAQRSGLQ
Method: as §1, §2

[3] = biological target: T3, TP^Δ328 (Homo sapiens, UniProt P21731); assay: Intracellular calcium mobilization, HEK.TP^Δ328 cells; type: cell-based; details: for Δ[Ca2+]i, U46619-induced: HEK.TP^Δ328
T3 construct: expressed in transfected cells
T3 sequence (P21731 1-328): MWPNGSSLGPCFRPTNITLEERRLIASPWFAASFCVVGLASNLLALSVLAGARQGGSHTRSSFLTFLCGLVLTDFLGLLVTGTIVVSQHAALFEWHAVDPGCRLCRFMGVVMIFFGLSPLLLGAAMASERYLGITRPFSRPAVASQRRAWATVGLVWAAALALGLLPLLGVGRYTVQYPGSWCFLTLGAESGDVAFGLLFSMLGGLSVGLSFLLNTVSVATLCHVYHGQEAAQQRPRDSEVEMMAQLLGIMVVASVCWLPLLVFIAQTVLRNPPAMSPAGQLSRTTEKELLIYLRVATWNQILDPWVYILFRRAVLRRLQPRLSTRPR
Method: Measurement of intracellular calcium mobilization ([Ca^2+]i) in FURA2/AM preloaded HEK 293 cell lines (2 × 10^6 cells/dish), each transiently co-transfected with pADVA (10 μg), and pCMV:Gαq (25 μg), was carried out as previously described. To investigate the effect of GRK2/βARK1 on TP-mediated [Ca^2+]i mobilization, HEK.TPα or HEK.TPβ cells (2 × 10^6 cells/dish) were co-transfected with pADVA (10 μg), pCMV:Gαq (25 μg) along with pRK5:βARK1^495–689 (25 μg), encoding a dominant negative form of GRK2/βARK1[39]. Approximately 48 h post-transfection, cells were harvested by scraping, washed twice in ice-cold PBS and resuspended in HBSSHB (modified Ca^2+/Mg^2+-free Hank's buffered salt solution, containing […], pH 7.67, 0.1% bovine serum albumin (BSA)) buffer at 10^7 cells/ml and incubated in the dark with 5 μM FURA2/AM for 45 min at 37 °C. Cells were collected by centrifugation (900×g, 5 min), washed once in an equal volume of HBSSHB, and were finally resuspended in HBSSHB buffer at 10^7 cells/ml and kept at room temperature in the dark for 40 min. For each measurement of [Ca^2+]i mobilization, aliquots of cells were diluted to 0.825 × 10^6 cells/ml in HBSSHB, 1 mM CaCl2 and FURA2 fluorescence was recorded (2 ml aliquots of cells) at 37^ °C with gentle stirring with a Perkin Elmer-Cetus LS50-B spectrofluorometer at excitation wavelengths of 340 nm and 380 nm and emission wavelength of 510 nm, respectively.
Cells were stimulated with the TP agonist U46619 (1 μM) and changes in [Ca^2+]i mobilization were monitored as a function of time. To assess agonist-mediated homologous desensitization, cells (0.825 × 10^6 cells/ml; 2 ml per assay) were stimulated with 1 μM U46619 (Primary stimulation) or, as a control, with the vehicle for 4 min; thereafter, cells were collected by centrifugation (900×g, 5 min); were washed twice in 2 ml HBSSHB, 1 mM CaCl2; and finally resuspended in 2 ml HBSSHB,1 mM CaCl2 and were left to recover over various time intervals (ranging from 0 to 60 min); thereafter, cells re-stimulated with 1 μM U46619 (Secondary stimulation) and changes in [Ca^2+]i mobilization were monitored as a function of time. To assess the role of protein kinase (PK) A, PKC or PKG on U46619-mediated desensitization of TPα signalling, cells were pre-incubated with the PKA inhibitor H-89 (10 μM), the PKC inhibitor GF 109203X (50 nM) or the PKG inhibitor KT 5823 (50 nM), for 15 min and respective kinase inhibitors were maintained throughout the primary/secondary U46619-stimulations and during the washes.
The vehicle had no effect on U46619-mediated [Ca^2+]i mobilization. Calibration of the signal was performed in each sample by adding 0.2% Triton X-100 to obtain the maximal fluorescence ratio (Rmax) and then 1 mM EGTA to obtain the minimal fluorescence ratio (Rmin). The ratio of the fluorescence at 340 nm to that at 380 nm is a measure of [Ca^2+]i, which assumes a Kd of 225 nM Ca^2+ for FURA2/AM. The results presented in the figures are representative data from at least three or four independent experiments and are plotted as changes in Ca^2+i mobilized (Δ[Ca^2+]i (nM)) as a function of time (s) upon ligand stimulation. Changes in [Ca^2+]i mobilization were determined by measuring peak rises in [Ca^2+]i mobilized (Δ[Ca^2+]i) and were calculated as mean changes in Δ[Ca^2+]i ± S.E.M. (nM).

Bmax (pmol/mg protein ± S.E.M.) [1] [pmol/mg protein]	Bmax (pmol/mg protein ± S.E.M.) [2] [pmol/mg protein]	Δ[Ca2+]i, U46619-induced ([3]; primary stimulation, 1 μM U46619 4 min) [nM]	Δ[Ca2+]i, U46619-induced ([3]; secondary 1 μM U46619 at 15 min) [nM]	Δ[Ca2+]i, U46619-induced ([3]; secondary 1 μM U46619 at 60 min) [nM]	secondary U46619 [Ca2+]i response relative to primary response ([3]; TP^Δ328, restimulation at 15 min) [%]	Compound
4.43 ± 0.04	3.23 ± 0.03	–	–	–	–	O=C(O)CCC/C=C\C[C@@H]1[C@H](CNNC(=O)Nc2ccccc2)[C@H]2CC[C@@H]1O2 [SQ29,548]
–	–	180 ± 5.6	158 ± 3.8	178 ± 6.7	~80	CCCCC[C@H](O)/C=C/[C@@H]1[C@@H](C/C=C\CCCC(=O)O)[C@H]2CO[C@@H]1C2 [U46619]
